Results published in ChEMBL document CHEMBL5325470, “Design, synthesis and mechanism studies of dual EZH2/BRD4 inhibitors for cancer therapy” (Bioorg Med Chem, 2023).
Calls of active or inactive are those of the source. The calls are words filed in the database; no cut-off is given here.

Legend:
MDA-MB-231 [1] = assay: Antiproliferative activity against human MDA-MB-231 cells incubated for 72 hrs by MTT assay; type: functional, cell-based; settings: MDA-MB-231, 72 h
[2] = Binding affinity to recombinant PRC2 complex (unknown origin) incubated for 3 hrs in presence of SAM; design: species or system Homo sapiens
BT-549 [3] = assay: Antiproliferative activity against human BT-549 cells incubated for 72 hrs by MTT assay; type: functional, cell-based; settings: BT-549, 72 h
[4] = target: Bromodomain-containing protein 4 (Homo sapiens, UniProt O60885); assay: Inhibition of BRD4 BD1 (unknown origin) incubated for 15 mins by TR-FRET method
HCT-116 [5] = assay: Antiproliferative activity against human HCT-116 cells incubated for 72 hrs by MTT assay; type: functional, cell-based; settings: HCT-116, 72 h
A549 [6] = assay: Antiproliferative activity against human A549 cells incubated for 72 hrs by MTT assay; type: functional, cell-based; settings: A549, 72 h
A549 [7] = assay: Synergistic antiproliferative activity against human A549 cells at JQ1 and compound 1:1 ratio incubated for 72 hrs by MTT assay; type: functional, cell-based; settings: A549, 72 h
HCT-116 [8] = assay: Synergistic antiproliferative activity against human HCT-116 cells at JQ1 and compound 1:1 ratio incubated for 72 hrs by MTT assay; type: functional, cell-based; settings: HCT-116, 72 h
MDA-MB-231 [9] = assay: Synergistic antiproliferative activity against human MDA-MB-231 cells at JQ1 and compound 1:1 ratio incubated for 72 hrs by MTT assay; type: functional, cell-based; settings: MDA-MB-231, 72 h
BT-549 [10] = assay: Synergistic antiproliferative activity against human BT-549 cells at JQ1 and compound 1:1 ratio incubated for 72 hrs by MTT assay; type: functional, cell-based; settings: BT-549, 72 h
[11] = target: T1, Histone-lysine N-methyltransferase EZH2 (Homo sapiens, UniProt Q15910); assay: Inhibition of EZH2 in human HCT-116 cells assessed as decrease in H3K27ac level at 2 to 8 uM incubated for 48 hrs by Western blotting analysis; type: cell-based; settings: dose 2-8 µM
[12] = target: T1, Histone-lysine N-methyltransferase EZH2; assay: Inhibition of EZH2 in human A549 cells assessed as decrease in H3K27ac level at 2 to 8 uM incubated for 48 hrs by Western blotting analysis; type: cell-based; settings: dose 2-8 µM
[13] = target: T1, Histone-lysine N-methyltransferase EZH2; assay: Inhibition of EZH2 in human MDA-MB-231 cells assessed as decrease in H3K27ac level at 2 to 8 uM incubated for 48 hrs by Western blotting analysis; type: cell-based; settings: dose 2-8 µM

T1 sequence (Q15910 whole entry, looked up): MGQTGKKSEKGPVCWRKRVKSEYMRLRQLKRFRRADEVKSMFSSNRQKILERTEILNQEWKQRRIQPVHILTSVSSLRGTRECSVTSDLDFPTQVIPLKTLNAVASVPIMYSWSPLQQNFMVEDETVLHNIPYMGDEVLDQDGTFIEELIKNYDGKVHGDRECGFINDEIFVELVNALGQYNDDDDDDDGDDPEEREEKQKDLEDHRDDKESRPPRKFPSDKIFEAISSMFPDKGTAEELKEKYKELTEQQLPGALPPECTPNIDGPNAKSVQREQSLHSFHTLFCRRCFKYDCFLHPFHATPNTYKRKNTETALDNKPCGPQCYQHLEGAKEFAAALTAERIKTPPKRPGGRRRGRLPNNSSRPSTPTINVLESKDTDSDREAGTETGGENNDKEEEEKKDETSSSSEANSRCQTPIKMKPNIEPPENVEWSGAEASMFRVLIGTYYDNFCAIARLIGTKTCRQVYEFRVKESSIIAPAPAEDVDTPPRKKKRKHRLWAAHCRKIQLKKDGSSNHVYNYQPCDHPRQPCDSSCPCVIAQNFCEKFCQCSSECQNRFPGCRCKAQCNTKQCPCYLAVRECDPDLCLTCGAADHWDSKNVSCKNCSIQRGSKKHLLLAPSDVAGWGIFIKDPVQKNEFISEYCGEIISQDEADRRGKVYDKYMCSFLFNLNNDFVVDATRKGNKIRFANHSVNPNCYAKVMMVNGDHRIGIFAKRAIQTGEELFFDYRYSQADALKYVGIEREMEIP

Row | Structure (SMILES) | IC50 (MDA-MB-231 [1]) | Kd [2] | IC50 (BT-549 [3]) | IC50 [4] | IC50 (HCT-116 [5]) | IC50 (A549 [6]) | IC50 (A549 [7]) | IC50 (HCT-116 [8]) | IC50 (MDA-MB-231 [9]) | IC50 (BT-549 [10]) | inhibition [11] | inhibition [12] | inhibition [13]
1 | Cc1cc(C)c(CNC(=O)c2cc(-c3ccc(NC(=O)CCCNC(=O)C[C@@H]4N=C(c5ccc(Cl)cc5)c5c(sc(C)c5C)-n5c(C)nnc54)cc3)cc3c2cnn3C(C)C)c(=O)[nH]1 | 7.54 µM | 0.376 µM | > 20 µM | 0.137 µM | > 20 µM | > 20 µM |  |  |  |  |  |  | 
2 | Cc1cc(C)c(CNC(=O)c2cc(-c3ccc(N4CCN(C(C)C)CC4)nc3)cc3c2cnn3C(C)C)c(=O)[nH]1 | 11.7 µM |  | 15.1 µM |  | 16.9 µM | 16.1 µM | 7.48 µM | 0.92 µM | 1.1 µM | 4.73 µM |  |  | 
3 | Cc1cc(C)c(CNC(=O)c2cc(-c3ccc(N4CCN(C(=O)C[C@@H]5N=C(c6ccc(Cl)cc6)c6c(sc(C)c6C)-n6c(C)nnc65)CC4)nc3)cc3c2cnn3C)c(=O)[nH]1 | 11.8 µM |  | 5.13 µM |  | > 20 µM | > 20 µM |  |  |  |  |  |  | 
4 | CCC(C)n1ncc2c(C(=O)NCc3c(C)cc(C)[nH]c3=O)cc(-c3ccc(N4CCN(C(=O)C[C@@H]5N=C(c6ccc(Cl)cc6)c6c(sc(C)c6C)-n6c(C)nnc65)CC4)nc3)cc21 (some centres undefined) | > 20 µM |  | > 20 µM |  | > 20 µM | > 20 µM |  |  |  |  |  |  | 
5 | Cc1cc(C)c(CNC(=O)c2cc(-c3ccc(NC(=O)CNC(=O)C[C@@H]4N=C(c5ccc(Cl)cc5)c5c(sc(C)c5C)-n5c(C)nnc54)cc3)cc3c2cnn3C(C)C)c(=O)[nH]1 | 1.24 µM |  | 10.8 µM | 0.138 µM | 2.9 µM | > 20 µM |  |  |  |  |  |  | 
6 | Cc1cc(C)c(CNC(=O)c2cc(-c3ccc(NC(=O)C[C@@H]4N=C(c5ccc(Cl)cc5)c5c(sc(C)c5C)-n5c(C)nnc54)cc3)cc3c2cnn3C(C)C)c(=O)[nH]1 | > 20 µM |  | > 20 µM | > 20 µM | > 20 µM | > 20 µM |  |  |  |  |  |  | 
7 | Cc1cc(C)c(CNC(=O)c2cc(-c3ccc(NC(=O)CCNC(=O)C[C@@H]4N=C(c5ccc(Cl)cc5)c5c(sc(C)c5C)-n5c(C)nnc54)cc3)cc3c2cnn3C(C)C)c(=O)[nH]1 | 6.16 µM | 0.464 µM | > 20 µM | 0.124 µM | > 20 µM | > 20 µM |  |  |  |  |  |  | 
8 | Cc1cc(C)c(CNC(=O)c2cc(N3CCC(CNC(=O)C[C@@H]4N=C(c5ccc(Cl)cc5)c5c(sc(C)c5C)-n5c(C)nnc54)CC3)cc3c2cnn3C(C)C)c(=O)[nH]1 | 2.07 µM | 0.133 µM | 3.2 µM | 0.353 µM | 5.61 µM | 8.93 µM |  |  |  |  |  |  | 
9 | Cc1cc(C)c(CNC(=O)c2cc(-c3ccc(CNC(=O)C[C@@H]4N=C(c5ccc(Cl)cc5)c5c(sc(C)c5C)-n5c(C)nnc54)cc3)cc3c2cnn3C(C)C)c(=O)[nH]1 | 3.14 µM |  | 12.2 µM | 0.259 µM | 11.5 µM | > 20 µM |  |  |  |  |  |  | 
10 | Cc1cc(C)c(CNC(=O)c2cc(NC3CCN(C(=O)C[C@@H]4N=C(c5ccc(Cl)cc5)c5c(sc(C)c5C)-n5c(C)nnc54)CC3)cc3c2cnn3C(C)C)c(=O)[nH]1 | 8.09 µM |  | 3.91 µM |  | 4.28 µM | > 20 µM |  |  |  |  |  |  | 
11 | Cc1cc(C)c(CNC(=O)c2cc(-c3ccc(NC(=O)CCCCNC(=O)C[C@@H]4N=C(c5ccc(Cl)cc5)c5c(sc(C)c5C)-n5c(C)nnc54)cc3)cc3c2cnn3C(C)C)c(=O)[nH]1 | 2.21 µM | 0.682 µM | 10.4 µM | 0.055 µM | 6.27 µM | > 20 µM |  |  |  |  |  |  | 
12 | Cc1cc(C)c(CNC(=O)c2cc(NCC3CCN(C(=O)C[C@@H]4N=C(c5ccc(Cl)cc5)c5c(sc(C)c5C)-n5c(C)nnc54)CC3)cc3c2cnn3C(C)C)c(=O)[nH]1 | 3.11 µM |  | 2.12 µM |  | 2.18 µM | 4.58 µM |  |  |  |  |  |  | 
13 | Cc1cc(C)c(CNC(=O)c2cc(-c3ccc(N4CCN(C(=O)C[C@@H]5N=C(c6ccc(Cl)cc6)c6c(sc(C)c6C)-n6c(C)nnc65)CC4)cc3)cc3c2cnn3C(C)C)c(=O)[nH]1 | > 20 µM |  | > 20 µM |  | 17.8 µM | > 20 µM |  |  |  |  |  |  | 
14 | CCCc1cc(C)[nH]c(=O)c1CNC(=O)c1cc(-c2ccc(N3CCN(C(=O)C[C@@H]4N=C(c5ccc(Cl)cc5)c5c(sc(C)c5C)-n5c(C)nnc54)CC3)nc2)cc2c1cnn2C(C)C | > 20 µM |  | > 20 µM |  | > 20 µM | > 20 µM |  |  |  |  |  |  | 
15 | Cc1sc2c(c1C)C(c1ccc(Cl)cc1)=N[C@@H](CC(=O)OC(C)(C)C)c1nnc(C)n1-2 | 6.17 µM |  | 3.89 µM |  | 3.07 µM | 18.3 µM |  |  |  |  |  |  | 
16 | Cc1cc(C)c(CNC(=O)c2cc(NCCCCNC(=O)C[C@@H]3N=C(c4ccc(Cl)cc4)c4c(sc(C)c4C)-n4c(C)nnc43)cc3c2cnn3C(C)C)c(=O)[nH]1 | 13.5 µM |  | 9.57 µM | 0.216 µM | 10.2 µM | > 20 µM |  |  |  |  |  |  | 
17 | Cc1cc(C)c(CNC(=O)c2cc(N3CCC4(CCN(C(=O)C[C@@H]5N=C(c6ccc(Cl)cc6)c6c(sc(C)c6C)-n6c(C)nnc65)C4)CC3)cc3c2cnn3C(C)C)c(=O)[nH]1 | 2.87 µM |  | 3.64 µM |  | 2.23 µM | 17.3 µM |  |  |  |  |  |  | 
18 | Cc1cc(C)c(CNC(=O)c2cc(N3CCN(C(=O)C[C@@H]4N=C(c5ccc(Cl)cc5)c5c(sc(C)c5C)-n5c(C)nnc54)CC3)cc3c2cnn3C(C)C)c(=O)[nH]1 | 10.9 µM |  | 3.87 µM |  | > 20 µM | > 20 µM |  |  |  |  |  |  | 
19 | Cc1cc(C)c(CNC(=O)c2cc(-c3ccc(N4CCN(C(=O)C[C@@H]5N=C(c6ccc(Cl)cc6)c6c(sc(C)c6C)-n6c(C)nnc65)CC4)nc3)cc3c2cnn3C(C)C)c(=O)[nH]1 | > 20 µM |  | 3.4 µM |  | 2.3 µM | > 20 µM |  |  |  |  |  |  | 
20 | Cc1cc(C)c(CNC(=O)c2cc(NCCCCCCNC(=O)C[C@@H]3N=C(c4ccc(Cl)cc4)c4c(sc(C)c4C)-n4c(C)nnc43)cc3c2cnn3C(C)C)c(=O)[nH]1 | 3.23 µM | 0.19 µM | 4.99 µM | 0.138 µM | 1.9 µM | 9.2 µM |  |  |  |  |  |  | 
21 | CCn1ncc2c(C(=O)NCc3c(C)cc(C)[nH]c3=O)cc(-c3ccc(N4CCN(C(=O)C[C@@H]5N=C(c6ccc(Cl)cc6)c6c(sc(C)c6C)-n6c(C)nnc65)CC4)nc3)cc21 | > 20 µM |  | 3.51 µM |  | 6.68 µM | > 20 µM |  |  |  |  |  |  | 
22 | Cc1cc(C)c(CNC(=O)c2cc(NCCCNC(=O)C[C@@H]3N=C(c4ccc(Cl)cc4)c4c(sc(C)c4C)-n4c(C)nnc43)cc3c2cnn3C(C)C)c(=O)[nH]1 | 15.4 µM |  | 11.5 µM | 0.206 µM | > 20 µM | > 20 µM |  |  |  |  |  |  | 
23 | CC[C@@H](C)n1cc(C)c2c(C(=O)NCc3c(C)cc(C)[nH]c3=O)cc(-c3ccc(N4CCNCC4)nc3)cc21 | 11.7 µM | 0.0891 µM | 9.23 µM |  | 12.9 µM | 18.6 µM | 4.34 µM | 1.76 µM | 2.6 µM | 2.05 µM | inactive | inactive | inactive
